ChEMBL document CHEMBL5726510, “MK2 inhibitors and uses thereof” (2017)

target: MAP kinase-activated protein kinase 2 (Homo sapiens, UniProt P49137); assay: Mass Spectrometry Assay: Compounds I-1 through I-50 of the invention were assayed in a mass spectrometric assay to measure their ability to covalently modify MK2 protein. The procedure for this assay follows. Intact MK2 protein (Invitrogen, Cat. No. PR5320A) was incubated for 60 minutes at room temperature with a 10-fold excess of test compound to protein. Aliquots of the resulting mixture (6 μL …
Sequence (P49137 whole entry): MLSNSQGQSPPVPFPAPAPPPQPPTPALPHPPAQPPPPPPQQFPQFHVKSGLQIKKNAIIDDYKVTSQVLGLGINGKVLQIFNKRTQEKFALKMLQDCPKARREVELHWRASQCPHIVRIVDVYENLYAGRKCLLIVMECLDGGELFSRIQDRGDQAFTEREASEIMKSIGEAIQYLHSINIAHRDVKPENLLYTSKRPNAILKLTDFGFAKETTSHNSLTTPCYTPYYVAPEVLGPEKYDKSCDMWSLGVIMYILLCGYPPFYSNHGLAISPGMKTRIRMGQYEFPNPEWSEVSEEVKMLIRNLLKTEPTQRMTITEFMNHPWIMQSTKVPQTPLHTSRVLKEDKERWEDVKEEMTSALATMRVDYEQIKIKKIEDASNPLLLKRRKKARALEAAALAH

Going from `C[C@@H]1CNc2c(sc3ccc4nc(Nc5nccc(Cl)n5)ccc4c23)C(=O)N1` to `C[C@@H]1CNc2c(sc3ccc4nc(Nc5nc(Cl)ncc5C(=O)NC5CC5)ccc4c23)C(=O)N1`, the IC50 falls from over 1000 nM to under 100 nM. The second is the more potent here.

First: CN(C)C[C@@H]1CNc2c(sc3ccc4nc(Nc5cc(F)ncn5)ccc4c23)C(=O)N1
Second: C[C@@H]1CNc2c(sc3ccc4nc(Nc5nc(Cl)ncc5C(=O)NC5COC5)ccc4c23)C(=O)N1
The IC50 of the first is higher: over 1000 nM for the first, under 100 nM for the second.

`C[C@@H]1CNc2c(sc3ccc4nc(Oc5cc(CNC(C)(C)C)nc(Cl)n5)ccc4c23)C(=O)N1` and `C[C@@H]1CNc2c(sc3ccc4nc(Nc5nc(Cl)ncc5C(=O)NC5CCN(C)CC5)ccc4c23)C(=O)N1` cannot be ordered by IC50: under 100 nM for the first, under 100 nM for the second.
